# Source: ChEMBL document CHEMBL3585271 (Bioorg Med Chem, 2015)
# How the values were obtained:
# [1] = biological target: T1, Amine oxidase [flavin-containing] B (Homo sapiens, UniProt P27338)
# T1 sequence (P27338 whole entry): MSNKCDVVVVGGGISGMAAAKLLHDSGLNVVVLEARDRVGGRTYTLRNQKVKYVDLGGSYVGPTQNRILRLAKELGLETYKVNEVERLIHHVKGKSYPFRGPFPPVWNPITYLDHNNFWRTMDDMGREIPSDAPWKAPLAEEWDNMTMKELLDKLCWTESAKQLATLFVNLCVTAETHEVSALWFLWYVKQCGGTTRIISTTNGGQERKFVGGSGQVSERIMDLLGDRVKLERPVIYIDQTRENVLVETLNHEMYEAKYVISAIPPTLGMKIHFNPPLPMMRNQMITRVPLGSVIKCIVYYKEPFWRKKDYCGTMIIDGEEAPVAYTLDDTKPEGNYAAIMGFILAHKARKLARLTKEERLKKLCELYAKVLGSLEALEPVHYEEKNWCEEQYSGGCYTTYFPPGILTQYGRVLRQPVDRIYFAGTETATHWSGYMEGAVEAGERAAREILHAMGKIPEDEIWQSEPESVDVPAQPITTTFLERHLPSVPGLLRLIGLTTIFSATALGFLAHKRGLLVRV
# Description: Inhibition of human recombinant MAO-B using benzylamine as substrate incubated for 15 mins prior to substrate addition measured after 20 mins by fluorescence plate reader analysis
# [2] = Antioxidant activity assessed as trolox equivalent of AAPH radical scavenging activity compound preincubated for 10 mins followed by AAPH challenge measured every min for 120 mins by ORAC-FL assay; format: physicochemical; conditions: 2 h
# Homo sapiens = species on record: Homo sapiens; assay: Selectivity index, ratio of IC50 for human recombinant MAO-A to IC50 for human recombinant MAO-B
# [3] = biological target: T2, Amine oxidase [flavin-containing] A (Homo sapiens, UniProt P21397)
# T2 sequence (P21397 whole entry): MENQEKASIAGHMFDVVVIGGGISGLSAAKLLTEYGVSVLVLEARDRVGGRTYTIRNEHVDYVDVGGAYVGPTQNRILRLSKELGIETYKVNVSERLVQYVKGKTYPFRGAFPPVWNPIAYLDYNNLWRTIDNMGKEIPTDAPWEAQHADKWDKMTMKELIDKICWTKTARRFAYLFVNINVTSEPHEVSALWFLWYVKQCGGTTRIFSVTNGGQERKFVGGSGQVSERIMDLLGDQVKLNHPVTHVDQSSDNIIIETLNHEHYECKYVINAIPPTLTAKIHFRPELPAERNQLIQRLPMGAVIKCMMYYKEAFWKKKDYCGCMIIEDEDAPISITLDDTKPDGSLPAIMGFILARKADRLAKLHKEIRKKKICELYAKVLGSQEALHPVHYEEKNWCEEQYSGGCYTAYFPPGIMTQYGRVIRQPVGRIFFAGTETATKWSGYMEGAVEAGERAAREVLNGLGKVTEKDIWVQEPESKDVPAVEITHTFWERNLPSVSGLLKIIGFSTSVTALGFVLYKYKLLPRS
# Description: Inhibition of human recombinant MAO-A using p-tyramine as substrate incubated for 15 mins prior to substrate addition measured after 20 mins by fluorescence plate reader analysis
# physchem = conditions: PAMPA
# Description: Permeability of the compound at 100 ug/mL after 10 hrs by PAMPA-BBB assay
# [4] = biological target: Amyloid-beta precursor protein (Homo sapiens) (UniProt P05067); assay: Inhibition of Cu2+-induced amyloid beta (1 to 42) aggregation (unknown origin) at 50 uM after 24 hrs by thioflavin T fluorescence assay (reference value: 100%); parameters: scale not given: the % may be the effect or the level left
# [5] = Metal chelating activity of the compound assessed as Cu2+ complex formation at 40 uM after 30 mins by UV-vis spectrometry; format: physicochemical; conditions: 0.5 h
# [6] = Metal chelating activity of the compound assessed as Fe2+ complex formation at 40 uM after 30 mins by UV-vis spectrometry; format: physicochemical; conditions: 0.5 h
# [7] = Metal chelating activity of the compound assessed as Zn2+ complex formation at 40 uM after 30 mins by UV-vis spectrometry; format: physicochemical; conditions: 0.5 h
# Amyloid-beta precursor protein (Homo sapiens), sequence (P05067 whole entry): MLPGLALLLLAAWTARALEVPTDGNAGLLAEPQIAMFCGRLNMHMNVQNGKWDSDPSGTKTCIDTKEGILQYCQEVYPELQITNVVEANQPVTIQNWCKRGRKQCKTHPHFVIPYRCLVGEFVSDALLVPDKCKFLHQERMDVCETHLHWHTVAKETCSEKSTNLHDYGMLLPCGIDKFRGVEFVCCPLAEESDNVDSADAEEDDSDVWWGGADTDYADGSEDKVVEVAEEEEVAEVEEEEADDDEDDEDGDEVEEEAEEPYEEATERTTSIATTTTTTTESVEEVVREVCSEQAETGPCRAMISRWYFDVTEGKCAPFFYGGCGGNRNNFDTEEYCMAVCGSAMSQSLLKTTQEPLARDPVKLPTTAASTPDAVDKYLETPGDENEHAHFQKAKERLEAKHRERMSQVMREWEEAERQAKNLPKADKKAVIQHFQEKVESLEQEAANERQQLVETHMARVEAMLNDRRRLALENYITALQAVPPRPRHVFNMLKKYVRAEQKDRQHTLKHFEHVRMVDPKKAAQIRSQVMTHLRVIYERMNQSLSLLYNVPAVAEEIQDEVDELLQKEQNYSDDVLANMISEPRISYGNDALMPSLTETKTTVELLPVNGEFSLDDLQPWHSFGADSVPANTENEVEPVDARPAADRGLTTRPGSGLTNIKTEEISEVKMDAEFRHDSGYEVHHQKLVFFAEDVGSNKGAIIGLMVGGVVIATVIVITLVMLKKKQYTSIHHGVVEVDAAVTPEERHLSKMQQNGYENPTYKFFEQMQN
Structure (SMILES),IC50 [1],Activity [2],Ratio IC50 (Homo sapiens),IC50 [3],"Papp at 10 h, 100 ug/mL (physchem)",Activity [4],Activity [5],Activity [6],Activity [7]
C#CCN(C)[C@H](C)Cc1ccc(NCc2cc(F)ccc2O)cc1,> 1000 nM,2.26 µmol,–,–,–,–,–,–,–
C#CCN(C)[C@H](C)Cc1ccc(NCc2ccc(OC)cc2O)cc1,> 1000 nM,4.35 µmol,–,–,–,–,–,–,–
C#CCN(C)[C@H](C)Cc1ccc(NCc2cc(Cl)ccc2O)cc1,310 nM,4.44 µmol,2.2,700 nM,–,–,–,–,–
C#CCN(C)[C@H](C)Cc1ccc(NCc2ncccc2C)cc1,520 nM,1.78 µmol,10.6,5530 nM,12.1 ×10⁻⁶ cm/s,–,–,–,–
CCN(CC)CCCC(C)Nc1ccnc2cc(Cl)ccc12 (stereo not given),–,–,–,–,–,68.2%,–,–,–
C#CCN(C)[C@H](C)Cc1ccc(NCc2cccc(OC)c2O)cc1,> 1000 nM,2.44 µmol,–,–,–,–,–,–,–
C#CCN(C)[C@H](C)Cc1ccc(NCc2ccccc2O)cc1,210 nM,4.2 µmol,25.6,5370 nM,11.5 ×10⁻⁶ cm/s,40.4%,Active,Active,Active
C#CCN(C)[C@H](C)Cc1ccc(NCc2cc(OC)ccc2O)cc1,310 nM,3.81 µmol,3.3,1020 nM,11.7 ×10⁻⁶ cm/s,–,–,–,–
C#CCN(C)[C@H](C)Cc1ccc(NCc2ncccc2OC)cc1,310 nM,1.49 µmol,–,3410 nM,–,69.1%,–,–,–
C#CCN(C)[C@H](C)Cc1ccc(NCc2cc(N(C)C)ccc2O)cc1,> 1000 nM,4.52 µmol,–,–,12.5 ×10⁻⁶ cm/s,–,–,–,–
C#CCN(C)[C@H](C)Cc1ccc(NCc2cc(O)ccc2O)cc1,430 nM,5.67 µmol,2.4,1030 nM,3.1 ×10⁻⁶ cm/s,63.1%,–,–,–
C#CCN(C)[C@H](C)Cc1ccc(NCc2cc([N+](=O)[O-])ccc2O)cc1,950 nM,2.1 µmol,–,–,–,–,–,–,–
